Results as given in publication PMC8742467, “Therapeutical interference with the epigenetic landscape of germ cell tumors: a comparative drug study and new mechanistical insights” (Clinical Epigenetics, 2022).

Key:
GCT cell lines = assay: XTT cell viability assay, GCT cell lines (pre-screen / summary); format: cell-based, Human; conditions: first pre-screen, SE and EC proxies TCam-2 and 2102EP, XTT
Protocol: The […] (XTT) assays were performed as described previously. In summary, for GCT and fibroblast cell lines 5 × 10^3 cells (3 × 10^3 for UC, PCa and RCC cell lines) per 96-well were seeded and different drug concentrations (see Additional file 2: Fig. S2, Additional file 3: Fig. S3) or corresponding solvents were added to the cells the following day. For drug details see Additional file 12: Table S2 C. Each condition was analyzed in four technical replicates and EC50 values were calculated by GraphPad Prism v8.

2102EP-R [1] = assay: Flow cytometry apoptosis (Annexin V/PI), 2102EP-R; format: cell-based, Human; conditions: EC50, 16 h, compared to the parental cell line
fibroblast control cells = assay: Flow cytometry apoptosis (Annexin V/PI), fibroblasts; format: cell-based, Human; conditions: EC50, 16 h
Protocol: (§1) For Annexin V/PI staining, cells were washed with Annexin V Binding Buffer before being resuspended in 70 µl Annexin V Binding Buffer and 2.5 μl Annexin V FITC-conjugate (both Miltenyi Biotec, Bergisch Gladbach, Germany) and 15 µg PI (Sigma-Aldrich, Taufkirchen, Germany) and incubated in the dark at room temperature for 15 min. 500 µl of Annexin V Binding Buffer was added before measurement. For the cell cycle analysis, cells were washed with PBS (phosphate buffered saline), fixed by ice cold 70% ethanol and stained with 2 µg/ml PI and 200 µg/ml RNaseA (Quiagen, Hilden, Germany 100 mg/ml) in PBS shortly before every measurement. At least 5 × 10^4 cells were counted and analyzed using the MACSQuant software v 2.13.0.

2102EP-R [2] = assay: Flow cytometry cell cycle (PI), 2102EP-R; format: cell-based, Human; conditions: EC50, 16 h
Protocol: as §1

GCT cells = assay: Flow cytometry cell cycle (PI), GCT cells; format: cell-based, Human; conditions: EC50, 16 h
Protocol: as §1

[3] = system: histone modifications in 2102EP cells; assay: Mass spectrometry analysis of histone modifications (Mod Spec); format: cell-based, Human
Protocol: 2102EP cells were treated with the EC50 concentrations for Quisinostat, JIB-04, Chaetocin, MZ-1, LP99, PRT4165, GSK343 and DMSO as solvent control. The cells were harvested via trypsinization after 16 h. The mass spectrometric analysis of histone modifications was outsourced to the Mod Spec service by Active Motif (Carlsbad, CA, USA). Histone extraction and mass spectrometric analysis was performed as described previously. Raw data were transformed into z-scores as the input. The heatmap was generated in R using ‘pheatmap’ with default settings and provided by Active Motif.

[4] = system: DNA methylation (5mC, 5hmC) in 2102EP cells; assay: DNA slot blot (5mC, 5hmC); format: cell-based, Human; conditions: 24 h
[5] = system: transcriptome of 2102EP cells; assay: RNA sequencing; format: cell-based, Human; conditions: 16 h
Protocol: Transcriptome analysis has been performed as previously described at the core facility ‘Genomics & Transcriptomics’ (Prof. Dr. Karl Köhrer, Biomedical Research Center, Heinrich Heine University, Düsseldorf, Germany) and has been publicly shared via GEO (https://www.ncbi.nlm.nih.gov/geo/, GSE189472). RNA samples were quantified and measured as previously described. Statistical analyses were performed using the ‘Differential Expression in two groups’ tool (version 1.02) (Qiagen) and the resulting p values were corrected for multiple testing by false discovery rate (FDR). Accompanying PCA and heatmap were generated using Qlucore Omics Explorer 3.7 (Qlucore AB, Lund, Sweden). Values of solvent controls wereaveraged from the studies GSE189472, GSE190792 and GSE190022 [95].

[6] = system: phosphorylated kinase targets in 2102EP cells; assay: Proteome Profiler Human Phospho-Kinase Array; format: cell-based; conditions: 16 h
Protocol: For the detection of phosphorylated kinase targets, the Proteome Profiler Human Phospho-Kinase Array Kit (R&D Systems, Abingdon, UK) was used according to the manufacturer’s instructions. The ChemiDoc Imaging System (Bio-Rad Laboratories, Feldkirchen, Germany) was used for detection. 2102EP cells were harvested after 16 h of treatment with the epi-drugs. Pixel density was analyzed using Fiji ImageJ 1.53c.

[7] = 2102EP cells, Mod Spec raw data

## Cc1ncsc1-c1ccc(CNC(=O)[C@@H]2C[C@@H](O)CN2C(=O)[C@@H](NC(=O)COCCOCCOCCNC(=O)C[C@@H]2N=C(c3ccc(Cl)cc3)c3c(sc(C)c3C)-n3c(C)nnc32)C(C)(C)C)cc1 [MZ-1]
GCT cell lines
  EC50 / effective concentration in words: nanomolar range
2102EP-R [1]
  apoptosis induction in 2102EP-R: did not induce apoptosis
Fibroblast control cells
  apoptosis induction in fibroblast control cells: only a weak apoptosis induction
2102EP-R [2]
  cell cycle arrest in 2102EP-R: induced a cell cycle arrest
GCT cells
  cell cycle phase accumulation in GCT cells: accumulated in the G0/G1 phase
[3]; [7]
  H1.4: K25AC, % of peptide pool: 0.008625%
  H1.4: K25ME1, % of peptide pool: 2.068%
  H1.4: K25ME2, % of peptide pool: 0.007907%
  H1.4: K25ME3, % of peptide pool: 0.004447%
  H1.4: K25UN, % of peptide pool: 97.9109%
  H2A1: K13AC, % of peptide pool: 0.01664%
  H2A1: K13UN, % of peptide pool: 99.9834%
  H2A1: K15AC, % of peptide pool: 0.002429%
  H2A1: K15UB, % of peptide pool: 0%
  H2A1: K15UN, % of peptide pool: 99.9976%
  H2A3: K13AC, % of peptide pool: 0.02309%
  H2A3: K13UN, % of peptide pool: 99.9769%
  H2A3: K15AC, % of peptide pool: 0.2972%
  H2A3: K15UB, % of peptide pool: 0%
  H2A3: K15UN, % of peptide pool: 99.7028%
  H2A: K5AC, % of peptide pool: 16.7692%
  H2A: K5UN, % of peptide pool: 83.2308%
  H2A: K9AC, % of peptide pool: 1.92%
  H2A: K9UN, % of peptide pool: 98.08%
  H2A: K36AC, % of peptide pool: 0.02873%
  H2A: K36UN, % of peptide pool: 99.9713%
  H3: K9AC, % of peptide pool: 0.8879%
  H3: K9ME1, % of peptide pool: 31.6276%
  H3: K9ME2, % of peptide pool: 28.3662%
  H3: K9ME3, % of peptide pool: 2.878%
  H3: K9UN, % of peptide pool: 36.24%
  H3: K14AC, % of peptide pool: 33.1456%
  H3: K14UN, % of peptide pool: 66.8544%
  H3: K18AC, % of peptide pool: 15.0157%
  H3: K18ME1, % of peptide pool: 0.179%
  H3: K18UN, % of peptide pool: 84.8052%
  H3: K23AC, % of peptide pool: 21.7451%
  H3: K23ME1, % of peptide pool: 0.008431%
  H3: K23UN, % of peptide pool: 78.2464%
  H3: K56AC, % of peptide pool: 0.06901%
  H3: K56ME1, % of peptide pool: 0.03638%
  H3: K56UN, % of peptide pool: 99.8946%
  H3: K64AC, % of peptide pool: 0.06102%
  H3: K64UN, % of peptide pool: 99.939%
  H3: K79AC, % of peptide pool: 0.05432%
  H3: K79ME1, % of peptide pool: 14.344%
  H3: K79ME2, % of peptide pool: 7.357%
  H3: K79ME3, % of peptide pool: 10.1837%
  H3: K79UN, % of peptide pool: 68.0612%
  H3: K122AC, % of peptide pool: 0.03608%
  H3: K122UN, % of peptide pool: 99.9639%
  H3: Q19ME1, % of peptide pool: 0.004515%
  H3: Q19UN, % of peptide pool: 99.9955%
  H3: Q55ME1, % of peptide pool: 0.1937%
  H3: Q55UN, % of peptide pool: 99.8063%
  H3: R42ME2, % of peptide pool: 1.387%
  H3: R42UN, % of peptide pool: 98.6131%
  H3: R49ME2, % of peptide pool: 3.092%
  H3: R49UN, % of peptide pool: 96.9084%
  H3R2UN: K4AC, % of peptide pool: 0.04633%
  H3R2UN: K4ME1, % of peptide pool: 16.637%
  H3R2UN: K4ME2, % of peptide pool: 0.2165%
  H3R2UN: K4ME3, % of peptide pool: 0.04192%
  H3R2UN: K4UN, % of peptide pool: 83.0582%
  H3R2UN: Q5ME1, % of peptide pool: 0.08148%
  H3R2UN: Q5UN, % of peptide pool: 99.9185%
  H3.1: K27AC, % of peptide pool: 2.915%
  H3.1: K27ME1, % of peptide pool: 46.4162%
  H3.1: K27ME2, % of peptide pool: 19.546%
  H3.1: K27ME3, % of peptide pool: 2.363%
  H3.1: K27UN, % of peptide pool: 28.7602%
  H3.1: K36AC, % of peptide pool: 0.09043%
  H3.1: K36ME1, % of peptide pool: 14.1558%
  H3.1: K36ME2, % of peptide pool: 48.8646%
  H3.1: K36ME3, % of peptide pool: 20.4408%
  H3.1: K36UN, % of peptide pool: 16.4484%
  H3.3: K27AC, % of peptide pool: 6.233%
  H3.3: K27M, % of peptide pool: 0%
  H3.3: K27ME1, % of peptide pool: 47.8396%
  H3.3: K27ME2, % of peptide pool: 15.5733%
  H3.3: K27ME3, % of peptide pool: 3.5424%
  H3.3: K27UN, % of peptide pool: 26.8119%
  H3.3: K36AC, % of peptide pool: 1.864%
  H3.3: K36ME1, % of peptide pool: 12.2128%
  H3.3: K36ME2, % of peptide pool: 53.2755%
  H3.3: K36ME3, % of peptide pool: 19.9611%
  H3.3: K36UN, % of peptide pool: 12.6864%
  H4: K5AC, % of peptide pool: 7.836%
  H4: K5UN, % of peptide pool: 92.164%
  H4: K8AC, % of peptide pool: 12.4074%
  H4: K8UN, % of peptide pool: 87.5926%
[3]; 2102EP cells, Mod Spec raw data, histone H4 K12 acetylated
  H4: K12AC, % of peptide pool: 7.206 % of peptide pool
[3]; 2102EP cells, Mod Spec raw data, histone H4 K12 unmodified
  H4: K12UN, % of peptide pool: 92.7945 % of peptide pool
[3]; 2102EP cells, Mod Spec raw data, histone H4 K16 acetylated
  H4: K16AC, % of peptide pool: 49.1827 % of peptide pool
[3]; 2102EP cells, Mod Spec raw data, histone H4 K16 unmodified
  H4: K16UN, % of peptide pool: 50.8173 % of peptide pool
[3]; 2102EP cells, Mod Spec raw data, histone H4 K20 acetylated
  H4: K20AC, % of peptide pool: 21.1654 % of peptide pool
[3]; 2102EP cells, Mod Spec raw data, histone H4 K20 dimethylated
  H4: K20ME2, % of peptide pool: 54.2158 % of peptide pool
[3]; 2102EP cells, Mod Spec raw data, histone H4 K20 monomethylated
  H4: K20ME1, % of peptide pool: 4.396 % of peptide pool
[3]; 2102EP cells, Mod Spec raw data, histone H4 K20 trimethylated
  H4: K20ME3, % of peptide pool: 2.467 % of peptide pool
[3]; 2102EP cells, Mod Spec raw data, histone H4 K20 unmodified
  H4: K20UN, % of peptide pool: 17.7556 % of peptide pool
[3]; 2102EP, EC50, 16 h, vs solvent control
  change of histone modifications of the expected mode of action (Mod Spec): increase in H3K64ac and H2A3K15ac
[4]
  5hmC levels increase compared to solvent control: 19%
[4]; solvent control set to 100%
  5mC levels compared to solvent control: 70%
[5]; sorted data log2>±1.5, FDR p<0.05
  EIF3CL Log2 fold change vs. DMSO: -2.31
[5]; unsorted data
  A1BG Log2 fold change vs. DMSO: -0.0752
  A1CF Log2 fold change vs. DMSO: -1.99
  A2M Log2 fold change vs. DMSO: 0.0948
[6]
  CREB, STAT3 and STAT5 phosphorylation and total levels of β-Catenin and HSP60: decreased
  ERK1/2 phosphorylation: decreased
